Experimental findings from patent US20250230155A1 (Vanderbilt University, priority 2021, published 2025) are described below.

pEC50: −log10 of the molar value.

What is called Emax is the greatest response seen or fitted, relative to the assay's reference. One may read the pEC50 as −log10 of the EC50, conventionally taken in molar units.

The test addresses T1, human mAChR M4 (Homo sapiens, UniProt P08173).
T1 construct: expressed in transfected cells
T1 sequence (P08173 1-479): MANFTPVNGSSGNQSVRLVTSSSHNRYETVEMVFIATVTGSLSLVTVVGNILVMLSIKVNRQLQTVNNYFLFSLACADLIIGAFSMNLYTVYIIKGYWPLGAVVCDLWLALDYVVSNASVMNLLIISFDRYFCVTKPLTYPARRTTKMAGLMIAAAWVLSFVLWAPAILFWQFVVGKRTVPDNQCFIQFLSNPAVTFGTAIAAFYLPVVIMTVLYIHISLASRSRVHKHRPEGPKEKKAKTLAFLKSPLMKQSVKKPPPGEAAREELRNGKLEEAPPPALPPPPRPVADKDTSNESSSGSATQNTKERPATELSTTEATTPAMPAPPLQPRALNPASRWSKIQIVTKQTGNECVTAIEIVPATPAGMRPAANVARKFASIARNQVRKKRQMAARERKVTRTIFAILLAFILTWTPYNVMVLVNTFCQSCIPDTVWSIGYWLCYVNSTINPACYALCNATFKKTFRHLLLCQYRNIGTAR
Nature of the test: mAChR M4 cell-based functional assay (calcium mobilization, CHO-K1 hM4-Gqi5 cells). The following applies: for Emax at 30 µM: CHO-K1, % ACh maximum at 30 μM, human M4; for pEC50: positive allosteric modulator activity, increase in the EC20 acetylcholine response, CHO-K1 hM4-Gqi5 cells, read-out: Human M4 EC50. A digest of the protocol:
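CHO-K1 cells stably expressing human M4 with chimeric Gqi5, loaded with Fluo-4 AM; compounds given as 11-point 1:3 curves and calcium flux read on FDSS at 1 Hz. Acetylcholine EC20 added at 144 s, EC80 at 230 s; agonist, PAM (EC20 potentiation) and antagonist (EC80 inhibition) EC50/Emax from four-parameter fits.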

Regarding `Cc1cc(C#N)nnc1N1CCc2ncc(C(C)(O)C(F)(F)F)cc2C1` (stereo not shown) [Example 424, 5-methyl-6-(3-(1,1,1-trifluoro-2-hydroxypropan-2-yl)-7,8-dihydro-1,6-naphthyridin-6(5H)-yl)pyridazine-3-carbonitrile], the Emax at 30 µM is 86% and the pEC50 was 5.84.

As for `Cc1cc(C#N)cnc1N1CCc2ncc(-c3cccc(F)n3)cc2C1` [compound 168, 6-[3-(6-fluoro-2-pyridyl)-7,8-dihydro-5H-1,6-naphthyridin-6-yl]-5-methyl-pyridine-3-carbonitrile], the Emax at 30 µM was 91% and the pEC50 is 6.38.
